The text below walks through data of PubChem BioAssay (NCI).

Test systems include KM12 colon; MDA-MB-231 breast; A549 NSCLC; TK-10 renal; SF-539 CNS; NCI/ADR-RES ovarian; NCI-H522 lung; DU-145 prostate; ACHN renal; SNB-75 CNS.
What all share (assay): growth of human tumour cells (NCI), 48 h

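Step 1: Grow cells in 96-well plates. Step 2: Expose to compound for 48 hours at 5 concentrations. Step 3: Interpolate endpoints linearly; if unreached, use highest concentration. At the GI50, growth is halved. TGI is the concentration that stops growth completely.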

As for `O=C(c1ccccc1)C(CN1CCCCC1)c1ccccc1` (stereo not given), the GI50 is 3.75 µM with KM12 colon; 1.82 µM in the assay with MDA-MB-231 breast; 16.1 µM in the assay on A549 NSCLC; 2.92 µM in the assay with TK-10 renal; 1.96 µM with SF-539 CNS; 1.27 µM in the assay on NCI/ADR-RES ovarian. Also, the GI50 with NCI-H522 lung was 0.316 µM; in the assay with DU-145 prostate it was 0.681 µM; in the assay on ACHN renal it was 0.941 µM; in the assay on SNB-75 CNS, 3.46 µM. The TGI worked out at 13.8 µM in the assay on KM12 colon; 4.37 µM with MDA-MB-231 breast; 43.8 µM in the assay on A549 NSCLC; 10.2 µM in the assay on TK-10 renal; 3.94 µM with SF-539 CNS; 2.9 µM in the assay on NCI/ADR-RES ovarian. Besides, the TGI is 2.53 µM with NCI-H522 lung, 2.05 µM with DU-145 prostate, 2.13 µM in the assay with ACHN renal and 15.4 µM in the assay on SNB-75 CNS.

For `Nc1nnnn1CCO`, the TGI in the assay on KM12 colon, in the assay on MDA-MB-231 breast, in the assay on A549 NSCLC, with TK-10 renal, in the assay with SF-539 CNS and with NCI/ADR-RES ovarian was over 100 µM each time. Also, the TGI in the assay on NCI-H522 lung, in the assay on DU-145 prostate, in the assay on ACHN renal and in the assay with SNB-75 CNS was over 100 µM in each case.

For `COc1cc(NCCCN=C(N)NC(N)=NC(C)C)c2ncccc2c1`, the GI50 was 0.633 µM in the assay with KM12 colon; 1.96 µM in the assay on MDA-MB-231 breast; 56.7 µM in the assay with A549 NSCLC; 15.7 µM with TK-10 renal; 5.08 µM in the assay with SF-539 CNS; over 100 µM in the assay on NCI/ADR-RES ovarian. For the same compound, the GI50 with NCI-H522 lung is 2.72 µM; with DU-145 prostate, 33.9 µM; in the assay on ACHN renal it was over 82.8 µM; in the assay with SNB-75 CNS, 4.81 µM. In addition, the TGI was 11.2 µM in the assay with KM12 colon; 14.3 µM in the assay with MDA-MB-231 breast; over 100 µM in the assay on A549 NSCLC; 46.1 µM with TK-10 renal; 30 µM in the assay with SF-539 CNS; over 100 µM in the assay on NCI/ADR-RES ovarian. The TGI is 9.61 µM in the assay on NCI-H522 lung, over 100 µM in the assay with DU-145 prostate, over 100 µM with ACHN renal and 28.5 µM in the assay with SNB-75 CNS.

`C#Cc1c(/C=C/C(=O)OCC)ccc2ccccc12`: the GI50 in the assay on KM12 colon is 5.84 µM; with MDA-MB-231 breast, 13.4 µM; in the assay on A549 NSCLC it was 30.4 µM; with TK-10 renal it was 30.4 µM; in the assay on SF-539 CNS, 22.3 µM; with NCI/ADR-RES ovarian it was 21.3 µM. For the same compound, the GI50 is 13.4 µM with NCI-H522 lung, 28.9 µM in the assay with DU-145 prostate, 14.6 µM with ACHN renal and 10.1 µM in the assay with SNB-75 CNS. Also, the TGI in the assay on KM12 colon was 23.9 µM; in the assay on MDA-MB-231 breast it was 35 µM; in the assay with A549 NSCLC, over 100 µM; in the assay with TK-10 renal, 79.1 µM; in the assay with SF-539 CNS it was 48.9 µM; in the assay on NCI/ADR-RES ovarian, 59.2 µM. Also, the TGI was 31.1 µM in the assay with NCI-H522 lung, 75.6 µM in the assay with DU-145 prostate, 31.7 µM with ACHN renal and 40.4 µM with SNB-75 CNS.

For `CC(C)O/N=C/c1cc(NC(=S)OC(C)C)ccc1Cl`, the TGI in the assay with KM12 colon is over 100 µM; with MDA-MB-231 breast it was 62 µM; in the assay on A549 NSCLC, over 90.6 µM; with TK-10 renal, over 100 µM; with SF-539 CNS it was over 78.8 µM; in the assay on NCI/ADR-RES ovarian, over 84.9 µM. Besides, the TGI in the assay with NCI-H522 lung is over 67.4 µM; with DU-145 prostate it was over 100 µM; in the assay with ACHN renal, 97.6 µM; in the assay with SNB-75 CNS, 57.2 µM.

For `COCc1cc(C(=O)Nc2cc([C@H]3CC[C@@H](OC(=O)NC(C)C)C3)[nH]n2)n(C)n1`, the GI50 in the assay with KM12 colon is 1.27 µM; with MDA-MB-231 breast, 16.6 µM; with A549 NSCLC, 13 µM; in the assay on TK-10 renal it was 19.9 µM; in the assay on SF-539 CNS, 6.34 µM; in the assay with NCI/ADR-RES ovarian it was over 100 µM. The GI50 was 16.2 µM in the assay on NCI-H522 lung, 5.13 µM in the assay on DU-145 prostate, 11.1 µM in the assay with ACHN renal and 3.86 µM in the assay on SNB-75 CNS. Besides, the TGI is 23.1 µM with KM12 colon; 91.1 µM in the assay with MDA-MB-231 breast; over 100 µM in the assay on A549 NSCLC; over 100 µM with TK-10 renal; 43.7 µM in the assay on SF-539 CNS; over 100 µM in the assay with NCI/ADR-RES ovarian. Also, the TGI in the assay on NCI-H522 lung is 47.2 µM; with DU-145 prostate, over 100 µM; with ACHN renal, over 100 µM; in the assay on SNB-75 CNS, 22.4 µM.

`Oc1ccc(-c2nc3ccccc3s2)cc1CN(Cc1ccccn1)Cc1ccccn1`: the GI50 with KM12 colon is 0.909 µM; with MDA-MB-231 breast it was 1.3 µM; with A549 NSCLC, 0.833 µM; in the assay on TK-10 renal it was 0.486 µM; in the assay on SF-539 CNS it was 1.42 µM; in the assay with NCI/ADR-RES ovarian it was 0.359 µM. Besides, the GI50 with NCI-H522 lung was 2.83 µM; in the assay on DU-145 prostate, 1.26 µM; in the assay with ACHN renal, 0.0991 µM; with SNB-75 CNS, 1.22 µM. Further, the TGI amounted to 15.6 µM with KM12 colon; 13.7 µM in the assay with MDA-MB-231 breast; 18.5 µM in the assay on A549 NSCLC; 34.6 µM in the assay with TK-10 renal; 6.75 µM in the assay with SF-539 CNS; 4.22 µM with NCI/ADR-RES ovarian. Besides, the TGI was found to be 14.2 µM with NCI-H522 lung, 20.8 µM with DU-145 prostate, 3.91 µM with ACHN renal and 15.3 µM in the assay with SNB-75 CNS.

As to `Cc1nnc(-c2cccc(-c3ccc(C(=O)NCC4CC4)cc3)c2)o1`, the GI50 in the assay on KM12 colon is 15.5 µM; with MDA-MB-231 breast, over 25 µM; in the assay on A549 NSCLC it was over 25 µM; with TK-10 renal, over 25 µM; in the assay on SF-539 CNS, over 25 µM; with NCI/ADR-RES ovarian, over 25 µM. Moreover, the GI50 in the assay on NCI-H522 lung, with DU-145 prostate, in the assay on ACHN renal and in the assay on SNB-75 CNS was over 25 µM each time. Further, the TGI in the assay on KM12 colon, in the assay on MDA-MB-231 breast, with A549 NSCLC, in the assay on TK-10 renal, with SF-539 CNS and with NCI/ADR-RES ovarian was over 25 µM in each case. Further, the TGI in the assay with NCI-H522 lung, in the assay on DU-145 prostate, in the assay on ACHN renal and with SNB-75 CNS was over 25 µM each time.
